Source: ChEMBL document CHEMBL4396870, “Pharmacological Chaperones for the Treatment of α-Mannosidosis” (J Med Chem, 2019)
Substitutions are numbered along the chain they refer to.

Legend:
[1] = test system: T1, Lysosomal alpha-mannosidase (Homo sapiens), O00754 [C55F]; experiment: Chaperone activity at human Lysosomal alpha-mannosidase C55F mutant transfected in human […] knockout HAP1 cells assessed as enzyme activity enhancement at 0.2 uM incubated for 96 hrs relative to control
T1 sequence (whole entry): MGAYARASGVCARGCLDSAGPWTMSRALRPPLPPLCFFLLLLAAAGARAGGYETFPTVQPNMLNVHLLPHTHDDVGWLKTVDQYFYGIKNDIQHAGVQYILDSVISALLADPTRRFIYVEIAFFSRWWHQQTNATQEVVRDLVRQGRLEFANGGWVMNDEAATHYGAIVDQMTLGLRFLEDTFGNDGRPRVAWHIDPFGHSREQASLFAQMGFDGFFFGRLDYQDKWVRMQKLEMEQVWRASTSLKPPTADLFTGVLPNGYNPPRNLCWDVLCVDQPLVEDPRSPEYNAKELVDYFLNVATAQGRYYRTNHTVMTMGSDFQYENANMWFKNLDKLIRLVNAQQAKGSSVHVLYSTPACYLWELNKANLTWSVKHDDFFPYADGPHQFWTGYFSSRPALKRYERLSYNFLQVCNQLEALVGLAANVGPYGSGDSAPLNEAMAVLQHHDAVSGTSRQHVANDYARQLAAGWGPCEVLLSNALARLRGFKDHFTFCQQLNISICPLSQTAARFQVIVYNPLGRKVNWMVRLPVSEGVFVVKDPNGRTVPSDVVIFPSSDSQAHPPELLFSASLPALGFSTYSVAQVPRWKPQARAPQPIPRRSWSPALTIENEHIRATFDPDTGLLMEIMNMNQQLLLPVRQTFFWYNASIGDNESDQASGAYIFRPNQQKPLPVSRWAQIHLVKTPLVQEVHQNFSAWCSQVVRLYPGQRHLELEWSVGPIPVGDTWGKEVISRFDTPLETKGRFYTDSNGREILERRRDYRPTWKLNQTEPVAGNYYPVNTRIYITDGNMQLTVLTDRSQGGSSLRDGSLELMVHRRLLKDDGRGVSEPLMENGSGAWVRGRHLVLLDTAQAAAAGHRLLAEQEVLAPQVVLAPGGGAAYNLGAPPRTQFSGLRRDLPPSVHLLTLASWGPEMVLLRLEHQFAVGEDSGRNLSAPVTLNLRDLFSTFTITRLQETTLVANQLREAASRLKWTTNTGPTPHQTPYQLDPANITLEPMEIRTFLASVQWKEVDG

[2] = test system: T2, Lysosomal alpha-mannosidase (Homo sapiens), O00754 [L352P]; experiment: Chaperone activity at human Lysosomal alpha-mannosidase L352P mutant transfected in human […] knockout HAP1 cells assessed as enzyme activity enhancement at 2 uM incubated for 96 hrs relative to control
T2 sequence (whole entry): T1 sequence (whole entry) with F55C, L352P

Compound: COC[C@H]1O[C@@H]2O[C@H]3[C@H](OC)[C@@H](OC)[C@@H](O[C@H]4[C@H](OC)[C@@H](OC)[C@@H](O[C@H]5[C@H](OC)[C@@H](OC)[C@@H](O[C@H]6[C@H](OC)[C@@H](OC)[C@@H](O[C@H]7[C@H](OC)[C@@H](OC)[C@@H](O[C@H]8[C@H](OC)[C@@H](OC)[C@@H](O[C@H]1[C@H](OC)[C@H]2OC)O[C@@H]8COC)O[C@@H]7COC)O[C@@H]6COC)O[C@@H]5COCc1cn(CCCCCCN[C@@H]2[C@@H](O)[C@@H](O)[C@H](O)[C@H]5COC(=O)N52)nn1)O[C@@H]4COC)O[C@@H]3COC
- Activity [1]: 23%
- Activity [2]: 6%

Compound: CC(C)(C)OC(=O)NCCCCCCCCCN[C@@H]1[C@@H](O)[C@@H](O)[C@H](O)[C@H]2COC(=O)N21
- Activity [1]: 13%
- Activity [2]: 8%
